Data set [1] in a line: Parallel artificial membrane permeability assay (PAMPA). The settings on record: 200 μM initial concentration, pH 7.4, 4 hours, room temperature; for Papp at 4 h, 200 μM: PAMPA, read-out: Effective permeability Pe. Format: in vitro ADME. How it is done:
Parallel artificial membrane permeability assay (PAMPA) described in Kansy M et al., J. Med. Chem. 1998; 41(7):1007-10 was used to determine the capacity of compounds to cross the Blood-Brain Barrier (BBB) by passive diffusion (Di L et al., Eur. J. Med. Chem. 2003; 38(3):223-32). The effective permeability (Pe) of the compounds was measured at an initial concentration of 200 μM. The buffer solution was prepared from a commercial concentrated one following the manufacturer's instructions. pH was adjusted to 7.4 using a 0.5 M NaOH solution. A stock solution of new compound was prepared in DMSO and diluted with buffer solution to a final 200 μM concentration (0.5% DMSO content). The PAMPA sandwich was separated and each donor well was filled with 200 μL of the compound solution. The acceptor plate was placed into the donor plate, ensuring that the underside of the membrane was in contact with buffer. 4 μL of the mixture of phospholipids (20 mg/mL) in dodecane was added to the filter of each well, and 200 μL of buffer solution was added to the each acceptor well. The plate was covered and incubated at room temperature in a saturated humidity atmosphere for 4 hours under orbital agitation at 100 rpm. After 4 hours, the contents of the acceptor and donor compartments were analyzed by HPLC: 150 μL of each well from the donor plate and 150 μL of each well from the acceptor plate were transferred to HPLC vials, injecting each sample into a reverse-phase C18 column (150 mm×4.6 mm×5 μm, 100 Å) (100 μL/injection from the acceptor wells, 10 μL/injection from the donor wells and for t0 references). Transport was also confirmed by MALDI-TOF spectrometry.
The phospholipid mixture used was a porcine polar brain lipid extract, provided by Avanti polar lipids, with the following composition: 12.6% phosphatidylcholine (PC), 33.1% phosphatidylethanolamine (PE), 18.5% phosphatidylserine (PS), 4.1% phosphatidylinositol (PI), 0.8% phosphatidic acid and 30.9% of other compounds.
The effective permeability (Pe) after 4 hours was calculated using equation 2 and the percentage of transport was calculated using equation 3:
[formula] wherein: t is time (h) CA(t) is the compound concentration in the acceptor well at time t and CD(to) is the compound concentration in the donor well at to.
In general terms: The PAMPA barrier holds no transporters, so it reflects passive diffusion.

The target in data set [2] is human prolyl oligopeptidase (Homo sapiens (Human), UniProt P48147). Put plainly: POP inhibition assay (Z-G-P-AMC substrate, fluorimetric). Format: biochemical. On the procedure: Expression and Purification of Prolyl Oligopeptidase (POP)
Chain of human prolyl oligopeptidase (P48147 whole entry, the tested form may be a part): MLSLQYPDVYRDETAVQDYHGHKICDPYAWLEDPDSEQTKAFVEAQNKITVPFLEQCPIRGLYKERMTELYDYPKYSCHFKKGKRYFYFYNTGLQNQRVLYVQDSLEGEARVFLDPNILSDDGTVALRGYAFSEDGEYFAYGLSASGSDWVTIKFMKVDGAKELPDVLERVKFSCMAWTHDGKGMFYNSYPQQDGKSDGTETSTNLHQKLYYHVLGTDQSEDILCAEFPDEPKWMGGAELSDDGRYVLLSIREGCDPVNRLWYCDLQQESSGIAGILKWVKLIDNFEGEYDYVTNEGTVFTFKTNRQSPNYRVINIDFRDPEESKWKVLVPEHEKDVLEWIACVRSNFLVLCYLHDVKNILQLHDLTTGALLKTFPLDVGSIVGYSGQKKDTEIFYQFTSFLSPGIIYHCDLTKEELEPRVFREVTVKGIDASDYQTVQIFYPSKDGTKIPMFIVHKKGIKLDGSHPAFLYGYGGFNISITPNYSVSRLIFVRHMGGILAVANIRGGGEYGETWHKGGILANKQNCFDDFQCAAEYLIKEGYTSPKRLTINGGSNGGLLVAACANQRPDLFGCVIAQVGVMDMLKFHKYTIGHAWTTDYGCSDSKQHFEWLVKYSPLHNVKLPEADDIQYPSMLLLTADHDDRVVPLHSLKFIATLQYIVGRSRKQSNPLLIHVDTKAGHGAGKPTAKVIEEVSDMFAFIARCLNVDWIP
POP was obtained by expression in E. coli and affinity purification using a His tail fusion according to a literature procedure (Tarragó T et al., ChemBioChem 2006; 7:827-33) summarized below:
hPOP expression: E. coli BL21 competent cells were transformed with pETM10 hPOP. To induce expression, a pre-culture of LB medium (50 mL) containing kanamycin (50 μg/mL) was inoculated with one colony and was grown overnight at 37° C. Next day, two cultures of LB medium (500 mL) were inoculated with the overnight culture (10 mL). The inoculated cultures were grown at 37° C. and 220 rpm until the OD595 was 1.2 (2.5-3 hours). IPTG was then added (final concentration of 1 mM) and induction was performed overnight at 25° C. Cells were harvested (3500 g, 15 min, 4° C.) and the pellet was suspended in suspension buffer (50 mL) [Tris-HCl pH 8 (50 mM), NaCl (300 mM), imidazole (1 mM)] and sonicated with use of four cycles (each consisting of 15 sec of sonication and 15 sec of rest) at an intensity of 50% and 0.5 pulses, the sample being kept on ice. After sonication, the sample was centrifuged (40 000 g, 30 min, 4° C.) and the supernatant was used immediately for POP purification. An ÁKTA explorer FPLC system was used for purification. The supernatant was applied at a flow of 1 mL/min to a HiTrapQuelating column (5 mL) previously equilibrated with 5 column volumes of suspension buffer. The column was washed with suspension buffer until the absorbance at 280 nm returned to basal level. The column was then rinsed with 5 volumes of washing buffer (50 mM Tris-HCl, pH 8, 300 mM NaCl, 30 mM imidazole). The elution was performed with 4 volumes of elution buffer (50 mM Tris-HCl, pH 8, 300 mM NaCl, 500 mM imidazole). Fractions (4 mL) were collected during the entire elution. POP activity was checked in all fractions and positive ones were analyzed by SDS-PAGE and stained with Biosafe Comassie Stain G-250. Positive fractions were collected and desalted by use of a HiPrep 26/10 Desalting column with Tris-HCl (50 mM, pH 8) as buffer. Recombinant hPOP was quantified with the Bio-Rad Protein Assay with BSA as standard. Aliquots of the recombinant enzyme were prepared and immediately frozen with liquid nitrogen and stored at −80° C.
POP activity was determined following the method described by Toide et al (Toide K et al., J. Pharmacol. Exp. Ther. 1995; 274:1370-8), using Z-G-P-AMC (N-benzyloxycarbonyl-Gly-Pro-methylcoumarinyl-7-amide) as POP substrate. The reactions were performed in 96-well microtiter plates, which allowed simultaneous monitoring of multiple reactions. For each reaction, activity buffer (134 μl, 100 mM Na/K phosphate buffer, pH 8.0) was pre-incubated for 15 min at 37° C. with hPOP (ranging from 20 to 60 nM, depending on the activity of the hPOP batch) and the corresponding new compound solution (3 μl). A stock solution of new compound was prepared in DMSO (100 mM), and dilutions were prepared from this stock solution with DMSO. Alternatively, the reactions were performed using another activity buffer (141 μL, 100 mM Tris-acetate, […], 1 mM DTT, pH 7.3), pre-incubating with hPOP (10 nM) and the corresponding new compound solution (3 μl) (Conditions B).
After preincubation, Z-G-P-AMC (10 μl, 3 mM in 40% 1,4-dioxane) was added (3 μl, 1.5 mM in 40% of 1,4-dioxane, in Conditions B), and the reaction was incubated for 1 hour at 37° C. The reaction was stopped by adding sodium acetate (150 μl, 1 M, pH 4) and the formation of AMC was measured fluorimetrically. The excitation and emission wavelengths were 360/40 and 485/20 nm, respectively.
Several concentration points (ranging from 25 μM to 400 μM) were measured for each compound. The inhibitory activity on prolyl oligopeptidase was calculated according to eq 1. For each new compound, the fluorescence in the presence (a) and in the absence of hPOP (b) was measured. […]

The mark [3] stands for this setting: 100 mM Na/K phosphate buffer, pH 8.0, hPOP 20 to 60 nM, Z-G-P-AMC, 1 hour at 37° C., read-out: IC50, inhibition of human prolyl oligopeptidase.
Setting [4] is: Conditions B: 100 mM Tris-acetate, 10 mM BSA, 1 mM DTT, pH 7.3, hPOP 10 nM, read-out: IC50, inhibition of human prolyl oligopeptidase, measured in conditions B.

SMILES strings stand for the structures. Where two headings read alike, the source gives them in different places.

In general, IC50 refers to the concentration that gives 50% inhibition. Turning to `COc1cc(C(=O)N2C[C@H](OC)C[C@H]2C(=O)N2CCC[C@H]2C#N)cc(OC)c1OCc1ccccc1` [Example 1, (S)-1-((2S,4R)-1-(4-(benzyloxy)-3,5-dimethoxybenzoyl)-4-methoxypyrrolidine-2-carbonyl)pyrrolidine-2-carbonitrile], in data set [1], the “% T (percentage of transport)” value turned out to be 4.3% and the Papp at 4 h, 200 μM came out at 1 ×10⁻⁶ cm/s. Moreover, the IC50 in data set [2] (setting [3]) is 63.8 nM.

Consider `COc1cc(C(=O)N2C[C@H](F)C[C@H]2C(=O)N2CCC[C@H]2C#N)cc(OC)c1OCc1ccccc1` [Example 2, (S)-1-((2S,4R)-1-(4-(benzyloxy)-3,5-dimethoxybenzoyl)-4-fluoropyrrolidine-2-carbonyl)pyrrolidine-2-carbonitrile], for which, in data set [1], the “% T (percentage of transport)” value is on record as 13.03% and the Papp at 4 h, 200 μM came out at 7.28 ×10⁻⁶ cm/s. Besides, the IC50 in data set [2] (setting [3]) came to 60.4 nM.

Take `COc1cc(C(=O)N2C[C@H](c3ccccc3)C[C@H]2C(=O)N2CCC[C@H]2C#N)cc(OC)c1OCc1ccccc1` [Example 3, (S)-1-((2S,4S)-1-(4-(benzyloxy)-3,5-dimethoxybenzoyl)-4-phenylpyrrolidine-2-carbonyl)pyrrolidine-2-carbonitrile]: in data set [1], the “% T (percentage of transport)” value is reported as 5.72% and the Papp at 4 h, 200 μM stood at 2.89 ×10⁻⁶ cm/s. Besides, in data set [2] (setting [3]), the IC50 amounted to 339 nM.

For `COc1cc(C(=O)N2C[C@@H](SC)C[C@H]2C(=O)N2CCC[C@H]2C#N)cc(OC)c1OCc1ccccc1` [Example 5, (S)-1-((2S,4S)-1-(4-(benzyloxy)-3,5-dimethoxybenzoyl)-4-(methythio)pyrrolidine-2-carbonyl)pyrrolidine-2-carbonitrile], in data set [1], the “% T (percentage of transport)” value was 17.03% and the Papp at 4 h, 200 μM amounted to 9.98 ×10⁻⁶ cm/s. Also, the IC50 in data set [2] (setting [3]) is 176 nM.

Take `COc1cc(C(=O)N2C[C@@H](C)C[C@H]2C(=O)N2CCC[C@H]2C#N)cc(OC)c1OCc1ccccc1` [Example 6, (S)-1-((2S,4S)-1-(4-(benzyloxy)-3,5-dimethoxybenzoyl)-4-methylpyrrolidine-2-carbonyl)pyrrolidine-2-carbonitrile]: in data set [1], the “% T (percentage of transport)” value amounted to 14.76% and the Papp at 4 h, 200 μM amounted to 3.79 ×10⁻⁶ cm/s. For the same compound, the IC50 in data set [2] (setting [4]) was determined as 13.1 nM.

`COc1cc(C(=O)N2C[C@@H](C(F)(F)F)C[C@H]2C(=O)N2CCC[C@H]2C#N)cc(OC)c1OCc1ccccc1` [Example 8, (S)-1-((2S,4S)-1-(4-(benzyloxy)-3,5-dimethoxybenzoyl)-4-(trifluoromethyl)-pyrrolidine-2-carbonyl)pyrrolidine-2-carbonitrile]: in data set [1], the “% T (percentage of transport)” value is given as 19.27% and the Papp at 4 h, 200 μM was determined as 5.07 ×10⁻⁶ cm/s. The IC50 in data set [2] (setting [3]) amounted to 176 nM.

As for `COc1cc(C(=O)N2C[C@H](OC(C)(C)C)C[C@H]2C(=O)N2CCC[C@H]2C#N)cc(OC)c1OCc1ccccc1` [Example 9, (S)-1-((2S,4R)-1-(4-(benzyloxy)-3,5-dimethoxybenzoyl)-4-(tert-butoxy)pyrrolidine-2-carbonyl)pyrrolidine-2-carbonitrile], the IC50 in data set [2] (setting [3]) was 668 nM.

As to `COc1cc(C(=O)N2CC(F)(F)C[C@H]2C(=O)N2CCC[C@H]2C#N)cc(OC)c1OC(C)=O` [Example 11, (S)-1-((2S)-1-(4-acetoxy-3,5-dimethoxybenzoyl)-4,4-difluoropyrrolidine-2-carbonyl)pyrrolidine-2-carbonitrile], in data set [2] (setting [3]), the IC50 came out at 352 nM.

For `COc1cc(C(=O)N2CC(F)(F)C[C@H]2C(=O)N2CCC[C@H]2C#N)cc(OC)c1OC(=O)c1ccccc1` [Example 12, (S)-1-((2S)-1-(4-benzoyloxy-3,5-dimethoxybenzoyl)-4,4-difluoropyrrolidine-2-carbonyl)pyrrolidine-2-carbonitrile], in data set [1], the “% T (percentage of transport)” value turned out to be 8.47% and the Papp at 4 h, 200 μM came to 2.1 ×10⁻⁶ cm/s. Also, the IC50 in data set [2] (setting [3]) stood at 111 nM.

On to `COc1cc(C(=O)N2CC(F)(F)C[C@H]2C(=O)N2CCC[C@H]2C#N)cc(OCc2ccccc2)c1OCc1ccccc1` [Example 13, (S)-1-((2S)-1-(3,4-dibenzyloxy-5-methoxybenzoyl)-4,4-difluoropyrrolidine-2-carbonyl)pyrrolidine-2-carbonitrile], for which the IC50 in data set [2] (setting [3]) stood at 336 nM.

On to `COc1cc(C(=O)N2CC(F)(F)C[C@H]2C(=O)N2CCC[C@H]2C#N)cc(OC(C)=O)c1OC` [Example 15, (S)-1-((2S)-1-(3-acetoxy-4,5-dimethoxybenzoyl)-4,4-difluoropyrrolidine-2-carbonyl)pyrrolidine-2-carbonitrile], for which the IC50 in data set [2] (setting [3]) was 5600 nM.

As to `COc1cc(C(=O)N2CC(F)(F)C[C@H]2C(=O)N2CCC[C@H]2C#N)cc(OC(=O)C(C)(C)C)c1OC` [Example 16, (S)-1-((2S)-1-(3-pivaloyloxy-4,5-dimethoxybenzoyl)-4,4-difluoropyrrolidine-2-carbonyl)pyrrolidine-2-carbonitrile], in data set [1], the “% T (percentage of transport)” value was determined as 19.08% and the Papp at 4 h, 200 μM turned out to be 5.02 ×10⁻⁶ cm/s. In addition, in data set [2] (setting [3]), the IC50 came out at 2140 nM.

For `N#C[C@@H]1CCCN1C(=O)[C@@H]1CC(F)(F)CN1C(=O)c1ccc(OCc2ccccc2)cc1` [Example 17, (S)-1-((S)-1-(4-(benzyloxy)benzoyl)-4,4-difluoropyrrolidine-2-carbonyl)pyrrolidine-2-carbonitrile], in data set [1], the “% T (percentage of transport)” value turned out to be 14.12% and the Papp at 4 h, 200 μM was determined as 8.04 ×10⁻⁶ cm/s. Also, in data set [2] (setting [4]), the IC50 worked out at 287 nM.

The values above are taken from US10125097B2, “1- [1-(benzoyl)-pyrrolidine-2-carbonyl]-pyrrolidine-2-carbonitrile derivatives” (UNIVERSITAT DE BARCELONA, priority 2012, dated 2018).
